In patent US20240208972A1, “LRRK2 INHIBITORS AND USES THEREOF” (NEURON23, INC., priority 2022, published 2024):

Tests used:
[1] = Human hepatocyte stability, in vitro h-Hept CLpredict; format: in vitro ADME; conditions: cryopreserved hepatocytes, predicted hepatic clearance, cells without asterisk, read-out: hHep Cl
Description: The compounds disclosed herein were tested in vitro on human hepatocyte for in vitro h-Hept CLpredict according to the following procedures. • 1. Compound sock solutions were prepared by dissolving test compound and positive control in dimethyl sulfoxide (DMSO) at a concentration of 10 mM. Stock solutions were then diluted to 100 μM solutions by combining 198 μL of 50% acetonitrile/50% water with 2 μL of the 10 mM stock stock in separate conical tubes. • 2. Cryopreserved hepatocytes were prepared as follows: Incubation medium (William's E Medium supplemented with GlutaMAX) and hepatocyte thawing medium were placed in a 37° C. water bath and allowed to warm for at least 15 minutes prior to use. Cryopreserved hepatocytes were removed from storage, ensuring that vials remained at cryogenic temperatures until thawed. Cells were thawed by placing the vials in a 37° C. water bath and gently shaking the vials for 2 minutes. After thawing was completed, vials were sprayed with 70% ethanol and transferred to a biosafety cabinet. Hepatocytes were transferred into 50 mL conical tube containing thawing medium using wide-bore pipette tips. Tubes were placed into a centrifuge and spun at 100 g for 10 minutes. Then thawing medium was aspirated and hepatocytes were resuspended in enough incubation medium to yield−1.5×10^6 cells/mL. Cells were counted using acridine orange and propidium iodide (AO/PI) staining, and the viable cell density was determined. Cells were diluted with incubation medium to a working cell density of 0.5×10^6 viable cells/mL. • 3. To determine hepatocyte stability, 198 μL of hepatocytes were transferred into each well of a 96-well non-coated plate. Plates were placed in an incubator to allow the hepatocytes to warm for 10 minutes. • 4. The reaction was started by transferring 2 μL of the 100 μM test compound or positive control solution into respective wells of the 96-well non-coated plates. Plates were returned to the incubator until 25 μL aliquots of well contents were sampled at time points of 0, 15, 30, 60, 90 and 120 minutes. The aliquots were then mixed with 6 volumes (150 μL) of acetonitrile containing internal standard, IS (100 nM alprazolam, 200 nM caffeine and 100 nM tolbutamide) to terminate the reaction and vortexed for 5 minutes. After centrifuging the samples for 45 minutes at 3,220 g, aliquots of 100 μL of the supernatant were taken and diluted with 100 μL of ultra-pure water. The mixture was used for LC/MS/MS analysis. All incubations were performed in duplicate.
All calculations were carried out using Microsoft Excel. Peak area ratios (PAR) were determined from extracted ion chromatograms. The in vitro half-life (t1/2) of parent compound was determined by regression analysis of the percent parent disappearance vs. time curve as follows:
The in vitro half-life (in vitro t1/2) was determined from the slope value:
Conversion of the in vitro t1/2 (in minutes) into the in vitro intrinsic clearance (in vitro CLint, in μL/min/1×10^6 cells) was done using the following equation (mean of duplicate determinations): […]
The scaled-up intrinsic clearance (CLint, mL/min/kg), predicted hepatic clearance (CLH, mL/min/kg) and hepatic extraction ratio (ER) were calculated using the following equations:
CLint=(0.693/t1/2)*(1/(hepatocyte concentration (0.5*10^6 cells/mL))*scaling factors (Table (A)
• CLHept-predict=(QH*Scaled-up CLint*fub)/(QH+Scaled-up CLint*fub) • ER=CLH/QH • Where: • V=incubation volume (0.2 mL) • N=number of hepatocytes per well (0.1*10^6 cells) • QH=hepatic blood flow (mL/min/kg) (Table (A)
• fub=fraction of unbound drug in plasma, assumed to be 1 • Values used for calculation of the predicted hepatic clearance parameters data processing rules are outlined in the following tables (A) (B)

[2] = molecular target: T1, wt human LRRK2, catalytic site (Homo sapiens, UniProt Q5S007); experiment: TR-FRET LanthaScreen Tb Kinase Activity Assay, LRRK2 kinase inhibition; format: biochemical; conditions: 2 nM wt human LRRK2, 400 nM peptide, 38 μM ATP
T1 construct: wt human LRRK2, catalytic site, catalytic site (ThermoFisher/USA); purchased ThermoFisher
Description: The compounds disclosed herein were tested for their inhibitory effect on LRRK2 kinase according to the following procedures.
The protocol for basic TR-FRET LanthaScreen Tb Kinase Activity Assay inhibitor studies is as follows. LanthaScreen Kinase Activity Assays (ThermoFisher/USA) to evaluate inhibitors were performed by addition of 100 nL of test compound in the corresponding DMSO dilutions/5 L of kinase/fluorescein-ERM(LRRKtide) peptide mixture, Compound & kinase were pre-incubated for 15 minutes, then 5 μl of ATP into 384 well small volume plates. After incubation for 120 minutes at room temperature, the detection reagents containing Tb-anti-pLRRKtide antibody were added to monitor the phosphrylation level of peptide. Then, after 60 min minutes incubation at room temperature plates were read in Envision. Data analysis of emission ratios was according to the LanthaScreen Tb Kinase Activity Assay protocol.
Kinase and assay components were adjusted to final concentrations according to the kit protocol. For LRRK2: 2 nM wt human LRRK2, catalytic site, catalytic site (ThermoFisher/USA), 400 nM peptide, 38 μM ATP in 1× Kinase Buffer A.
Basic protocol for TR-FRET LanthaScreen Tb Kinase Activity Assay inhibitor studies involved two steps: Enzymatic step: Addition of 100 nl of test compound in corresponding DMSO dilutions, 5 μl of kinase/substrate mixture, 5 μl of ATP into 384 well small volume plates. Incubation for 120 minutes at room temperature.
Detection step: Addition of 10 μl EDTA & antibody, read plate after 60 minutes. Data analysis of emission ratios according to KinEASE assay protocol.
Kinase and assay components were adjusted to final concentrations according to the kit protocol.

Caco-2 cells = experiment: Caco-2 bidirectional permeability; format: in vitro ADME; conditions: for Caco-2 A2B (10^−6 cm/s): A to B; for Caco-2 A2B (10^−6 cm/s) / Caco-2 B2A (10^−6 cm/s): HBSS pH 7.4, 2 hours; for Caco-2 B2A (10^−6 cm/s): B to A; for Caco-2 ER: Efflux Ratio=Papp (BA)/Papp (AB)
Description: The compounds disclosed herein were tested in vitro on CaCo2 cell penetration according to the following procedures.
Test compounds were prepared in dimethyl sulfoxide (DMSO).
Caco-2 cells purchased from ATCC were seeded onto […] (PET) in 96-well Corning Insert plates at 1×10^5 cells/cm^2. The media were refreshed every 4 to 5 days until the 21st to 28th day for confluent cell monolayer formation.
Experiments were run in duplicate using a HBSS transport buffer containing 10 mM HEPES at pH 7.4. The test article TEST COMPOUND was tested bi-directionally at […] concentrations, the control compound digoxin was tested bi-directionally at 10 μM, and nadolol and metoprolol were tested at 2.0 μM in the A to B direction. Final DMSO concentrations were adjusted to less than 1%. The plates were incubated for 2 hours in a CO2 incubator at 37±1° C. with 5% CO2 at saturated humidity without shaking. Following incubation, samples were mixed with acetonitrile containing internal standard and centrifuged at 3200×g for 10 minutes. Then 200 μL of supernatant was taken from all samples. For TEST COMPOUND and digoxin, the supernatant was diluted with 200 μL of ultra-pure water and for nadolol and metoprolol, the supernatant was diluted with 600 μL of ultra-pure water. All samples were analyzed by LC-MS/MS. Concentrations of TEST COMPOUND and control compounds were determined in starting solutions, donor well solutions, and receiver well solutions using peak area ratios (PAR) of analyte to internal standard. After the transport assay, a lucifer yellow rejection assay was run to determine the Caco-2 cell monolayer integrity.
The apparent permeability (Papp), the % recovery and the efflux ratio were calculated as follows: • 1. Papp=(dCr/dt)×Vr/(A×C0) • 2. % Recovery=100×[(Vr×Cr)+(Vd×Cd)]/(Vd×C0) • 3. Efflux Ratio=Papp (BA)/Papp (AB) • Where: • dCr/dt is the slope of the cumulative concentration in the receiver compartment versus time (mM/s). • Vr and Vd is the volume in the receiver and donor compartments (0.075 mL on the apical side, 0.25 mL on the basolateral side), respectively. • A is the surface area of the cell monolayer (0.0804 cm^2). • C0 is the measured donor concentrations (μM) at the beginning of the experiment. • Cd and Cr are the final measured concentrations in the donor and receiver compartments, respectively.
The cell monolayer tight junction integrity assay was conducted after completion of the transport assay by adding Lucifer Yellow (LY) to the apical wells at 100 μM and incubating the cells for 30 minutes. Following incubation, tight junction integrity was assessed from LY concentrations in the basolateral compartment (receiver well) and the apical compartment (donor well) using fluorescence detection as follows: […]

T1 sequence (Q5S007 1879-2138 limits assumed): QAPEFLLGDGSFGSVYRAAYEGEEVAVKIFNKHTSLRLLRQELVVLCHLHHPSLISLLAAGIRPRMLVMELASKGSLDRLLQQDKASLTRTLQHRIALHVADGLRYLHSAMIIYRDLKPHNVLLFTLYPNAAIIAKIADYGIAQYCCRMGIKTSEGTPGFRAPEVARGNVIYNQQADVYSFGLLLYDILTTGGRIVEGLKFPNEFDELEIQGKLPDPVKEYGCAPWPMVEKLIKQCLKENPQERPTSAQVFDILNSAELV

SMILES	CLhep predicted at 1 µM [1] [mL/min/kg]	IC50 [2] [nM]	Caco-2 A2B (10^−6 cm/s) (Caco-2 cells)	Caco-2 B2A (10^−6 cm/s) (Caco-2 cells)	Caco-2 ER (Caco-2 cells)
CCOC[C@H]1CN(c2cc3c(c(C)n2)NC(c2c(F)cccc2F)=Nc2c(C)n[nH]c2-3)CCO1 [Example 51, (R)-4-(5-(2,6-difluorophenyl)-3,7-dimethyl-1,6-dihydropyrazolo[4,3-d]pyrido[4,3-f][1,3]diazepin-9-yl)-2-(ethoxymethyl)morpholine]	6.3 to 14.7	< 2	M (M (Moderate permeability)”: 1≤A2B (B2A)≤5)	H (H (High permeability)”: A2B (B2A)>5)	N (N (Non-substrate)”: ER<2.5)
Cc1n[nH]c2c1N=C(c1c(F)cccc1F)Nc1cnc(-n3ccc(C#N)n3)cc1-2 [Example 57, 1-[8-(2,6-difluorophenyl)-5-methyl-3,4,7,9,12-pentazatricyclo [8.4.0.02,6]tetradeca-1(10),2(6),4,7,11,13-hexaen-13-yl]pyrazole-3-carbonitrile]	6.3 to 14.7	2 to 100	H (H (High permeability)”: A2B (B2A)>5)	H (H (High permeability)”: A2B (B2A)>5)	N (N (Non-substrate)”: ER<2.5)
COC[C@@H]1CN(c2cc3c(c(C)n2)NC(c2c(F)cccc2F)=Nc2c(C)n[nH]c2-3)CCO1 [Example 46, (2S)-4-[8-(2,6-difluorophenyl)-5,11-dimethyl-3,4,7,9,12-pentazatricyclo[8.4.0.02,6]tetradeca-1(10),2(6),4,7,11,13-hexaen-13-yl]-2-(methoxymethyl)morpholine]	< 6.3	< 2	H (H (High permeability)”: A2B (B2A)>5)	H (H (High permeability)”: A2B (B2A)>5)	N (N (Non-substrate)”: ER<2.5)

Results, then the compound that gave them:

CLhep predicted at 1 µM [1] [mL/min/kg]	IC50 [2] [nM]	Caco-2 A2B (10^−6 cm/s) (Caco-2 cells)	Caco-2 B2A (10^−6 cm/s) (Caco-2 cells)	Caco-2 ER (Caco-2 cells)	SMILES
6.3 to 14.7	< 2	H (H (High permeability)”: A2B (B2A)>5)	H (H (High permeability)”: A2B (B2A)>5)	N (N (Non-substrate)”: ER<2.5)	Cc1n[nH]c2c1N=C(c1c(F)cccc1F)Nc1cnc(-c3ccc(C(F)(F)F)nc3)cc1-2 [Example 58, 8-(2,6-difluorophenyl)-5-methyl-13-[6-(trifluoromethyl)-3-pyridyl]-3,4,7,9,12-pentazatricyclo[8.4.0.0^2,6]tetradeca-1(10),2(6),4,7,11,13-hexaene]
6.3 to 14.7	< 2	H (H (High permeability)”: A2B (B2A)>5)	H (H (High permeability)”: A2B (B2A)>5)	N (N (Non-substrate)”: ER<2.5)	Cc1ccc(-c2ccc3c(c2)-c2[nH]nc(C)c2N=C(c2c(F)cccc2F)N3)cn1 [Example 53, 5-(2,6-difluorophenyl)-3-methyl-9-(6-methyl-3-pyridyl)-1,6-dihydropyrazolo[4,3-d][1,3]benzodiazepine]
6.3 to 14.7	< 2	H (H (High permeability)”: A2B (B2A)>5)	H (H (High permeability)”: A2B (B2A)>5)	N (N (Non-substrate)”: ER<2.5)	Cc1n[nH]c2c1N=C(c1c(F)cccc1F)Nc1c-2cc(N2C[C@H](C)O[C@@H](C)C2)nc1C [Example 39, (2S,6S)-4-[8-(2,6-difluorophenyl)-5,11-dimethyl-3,4,7,9,12-pentazatricyclo[8.4.0.02,6]tetradeca-1(10),2(6),4,7,11,13-hexaen-13-yl]-2,6-dimethyl-morpholine]
> 14.7	< 2	H (H (High permeability)”: A2B (B2A)>5)	H (H (High permeability)”: A2B (B2A)>5)	N (N (Non-substrate)”: ER<2.5)	Cc1n[nH]c2c1N=C(c1c(F)cccc1F)Nc1ccc(-c3ccn(C(F)F)n3)cc1-2 [Example 14, 9-[1-(difluoromethyl)pyrazol-3-yl]-5-(2,6-difluorophenyl)-3-methyl-1,6-dihydropyrazolo[4,3-d][1,3]benzodiazepine]
6.3 to 14.7	< 2	H (H (High permeability)”: A2B (B2A)>5)	H (H (High permeability)”: A2B (B2A)>5)	N (N (Non-substrate)”: ER<2.5)	Cc1n[nH]c2c1N=C(c1c(F)cccc1F)Nc1cnc(N3CCC(F)CC3)cc1-2 [Example 3, 8-(2,6-difluorophenyl)-13-(4-fluoro-1-piperidyl)-5-methyl-3,4,7,9,12-pentazatricyclo[8.4.0.02,6]tetradeca-1(10),2(6),4,7,11,13-hexaene]
